In ChEMBL document CHEMBL4765274, “The development of advanced structural framework as multi-target-directed ligands for the treatment of Alzheimer's disease” (Eur J Med Chem, 2020):
Activity calls are given as the source filed them. The rule behind the calls is not given here.

Key:
[1] = Toxicity in 3 dpf zebra fish assessed as mortality at 12.5 ug/ml (reference value: 0%); set-up: species or system Danio rerio; details: zebrafish, at 12.5 µg/mL, read-out: Activity
PC-12 = assay: Cytotoxicity against rat PC-12 cells assessed as reduction in cell viability up to 100 uM after 48 hrs by MTT assay; format: cell-based; details: pc-12, 48 h
[2] = Inhibition of self-induced amyloid beta (1 to 42 residues) (unknown origin) aggregation by thioflavin T based fluorescence assay; set-up: species or system Homo sapiens; details: read-out: IC50
[3] = Toxicity in 2 dpf zebra fish assessed as bradycardia at 25 ug/ml after 3 days relative to control; set-up: species or system Danio rerio; details: zebrafish, 72 h, at 25 µg/mL, time 3 day
[4] = Toxicity in 2 dpf zebra fish assessed as dark brown liver at 8.33 ug/ml after 3 days relative to control; set-up: species or system Danio rerio; details: zebrafish, 72 h, at 8.33 µg/mL, time 3 day
Acetylcholinesterase [5] = target: T1, Acetylcholinesterase (Homo sapiens, UniProt P22303); assay: Inhibition of AChE in human erythrocytes by Ellman's method; format: cell-based, Erythrocyte
T1 sequence (P22303 whole entry): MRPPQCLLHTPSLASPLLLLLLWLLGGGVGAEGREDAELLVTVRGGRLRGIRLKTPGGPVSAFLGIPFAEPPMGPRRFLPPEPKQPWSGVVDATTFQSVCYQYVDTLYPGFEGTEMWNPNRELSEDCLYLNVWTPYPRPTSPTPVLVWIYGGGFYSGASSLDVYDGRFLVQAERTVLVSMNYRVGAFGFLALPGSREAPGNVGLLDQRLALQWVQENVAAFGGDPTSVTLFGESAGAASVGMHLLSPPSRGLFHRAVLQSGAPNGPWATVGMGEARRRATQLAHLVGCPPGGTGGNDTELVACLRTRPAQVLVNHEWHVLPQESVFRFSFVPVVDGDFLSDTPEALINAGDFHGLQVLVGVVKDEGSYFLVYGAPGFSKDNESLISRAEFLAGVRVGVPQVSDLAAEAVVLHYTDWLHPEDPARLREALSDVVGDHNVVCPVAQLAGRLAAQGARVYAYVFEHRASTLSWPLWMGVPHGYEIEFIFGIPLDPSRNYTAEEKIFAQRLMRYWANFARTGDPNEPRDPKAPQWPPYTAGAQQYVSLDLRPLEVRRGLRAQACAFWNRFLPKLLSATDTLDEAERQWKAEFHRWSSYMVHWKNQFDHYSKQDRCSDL

Mus musculus [6] = assay: Antialzheimer activity in scopolamine-induced Kunming mouse model of memory impairment assessed as total reads in brain hippocampus at 5 mg/kg , po by illumina sequencing method (reference value: 100%); format: functional
Danio rerio [7] = organism: Danio rerio; assay: Antialzheimer activity in Alcl3-induced zebra fish AD model assessed as increase dyskinesia recovery rate at 0.26 ug/ml relative to control; format: functional; details: dose 0.26 µg/ml
[8] = Toxicity in 3 dpf zebra fish assessed as mortality at 25 ug/ml (reference value: 0%); set-up: species or system Danio rerio; details: zebrafish, at 25 µg/mL, read-out: Activity
[9] = Toxicity in 3 dpf zebra fish assessed as mortality at 100 ug/ml (reference value: 0%); set-up: species or system Danio rerio; details: zebrafish, at 100 µg/mL, read-out: Activity
[10] = Metal chelating activity assessed as Fe2+-compound complex formation in methanol at 37.5 uM by UV-Visible spectra analysis
[11] = Toxicity in 2 dpf zebra fish assessed as yolk sac absorption delay at 2.78 ug/ml after 3 days relative to control; set-up: species or system Danio rerio; details: zebrafish, 72 h, at 2.78 µg/mL, time 3 day
Acetylcholinesterase [12] = target: T1, Acetylcholinesterase; assay: Reversible inhibition of human AChE assessed as residual activity at 0.1 times of IC50 concentration after 120 mins relative to control
[13] = Drug metabolism in rat liver microsomes assessed as metabolite formation by UPLC-TOF analysis; format: ADME, Microsome
Cholinesterase [14] = target: Cholinesterase (Equus caballus, UniProt P81908); assay: Inhibition of equine serum BChE by Ellman's method; format: cell-free
Cholinesterase (Equus caballus, UniProt P81908), sequence (P81908 whole entry): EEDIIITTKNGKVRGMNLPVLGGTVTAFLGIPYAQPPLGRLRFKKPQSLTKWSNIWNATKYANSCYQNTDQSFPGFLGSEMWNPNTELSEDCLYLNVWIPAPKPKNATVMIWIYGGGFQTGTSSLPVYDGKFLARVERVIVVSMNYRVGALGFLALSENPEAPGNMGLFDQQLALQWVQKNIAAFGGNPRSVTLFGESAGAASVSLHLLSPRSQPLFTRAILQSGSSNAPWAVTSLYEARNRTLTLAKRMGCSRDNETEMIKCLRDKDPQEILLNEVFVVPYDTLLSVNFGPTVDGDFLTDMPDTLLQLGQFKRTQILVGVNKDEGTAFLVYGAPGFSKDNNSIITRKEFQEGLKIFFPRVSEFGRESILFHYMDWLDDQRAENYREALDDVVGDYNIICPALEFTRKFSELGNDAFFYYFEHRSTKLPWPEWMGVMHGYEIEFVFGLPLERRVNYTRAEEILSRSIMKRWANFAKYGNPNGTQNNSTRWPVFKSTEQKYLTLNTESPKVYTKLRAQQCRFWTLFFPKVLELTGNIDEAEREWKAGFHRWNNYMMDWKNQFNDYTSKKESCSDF

[15] = Metal chelating activity assessed as Zn2+-compound complex formation in methanol at 37.5 uM by UV-Visible spectra analysis
[16] = (§1) Binding affinity to amyloid beta (1 to 42 residues) (unknown origin) by biolayer interferometry analysis; set-up: species or system Homo sapiens
Homo sapiens = organism: Homo sapiens; assay: as §1
[17] = Disaggregation of Cu2+ induced amyloid beta (unknown origin) aggregation after 48 hrs by TEM analysis
[18] = Toxicity in 2 dpf zebra fish assessed as short or misshapen eye at 25 ug/ml after 3 days relative to control; set-up: species or system Danio rerio; details: zebrafish, 72 h, at 25 µg/mL, time 3 day
HT-22 [19] = assay: Activation of ubiquitin-proteasome system in mouse HT-22 cells expressing pRK5-GFP-Tau assessed as increase in tau degradation by measuring reduction in GFP level at 2.5 to 20 uM after 24 hrs by Western blot analysis; format: cell-based; details: filed as activator, dose 2.5-20 µM
[20] = Toxicity in 3 dpf zebra fish assessed as mortality at 200 ug/ml (reference value: 0%); set-up: species or system Danio rerio; details: zebrafish, at 200 µg/mL, read-out: Activity
HT-22 [21] = assay: Activation of ubiquitin-proteasome system in mouse HT-22 cells expressing pEGFP-N1-APP assessed as increase in APP degradation by measuring reduction in GFP level at 2.5 to 20 uM after 24 hrs by fluorescence microscopic method; format: cell-based; details: filed as activator, dose 2.5-20 µM
[22] = Toxicity in 2 dpf zebra fish assessed as misshapen brain at 25 ug/ml after 3 days relative to control; format: tissue-based, Danio rerio; details: zebrafish, 72 h, at 25 µg/mL, time 3 day
HT-22 [23] = assay: Activation of ubiquitin-proteasome system in mouse HT-22 cells expressing YFP-CLI assessed as reduction in GFP level at 10 uM after 24 hrs by fluorescence microscopic method; format: cell-based; details: filed as activator
[24] = Effective permeability of compound at 100 ug/m by PAMPA-BBB assay; format: ADME; details: read-out: Peff
[25] = Metal chelating activity assessed as Fe2+-compound complex formation in water at 37.5 uM by UV-Visible spectra analysis
[26] = Metal chelating activity assessed as Al3+-compound complex formation in PBS buffer at pH 7.4 at 37.5 uM by UV-Visible spectra analysis
Danio rerio [27] = organism: Danio rerio; assay: Antialzheimer activity in Alcl3-induced zebra fish AD model assessed as increase in motility at 0.09 ug/ml relative to control; format: functional; details: dose 0.09 µg/ml
[28] = Selectivity index, ratio of IC50 for inhibition of equine serum BChE to IC50 for inhibition of electric eel AChE
SH-SY5Y [29] = assay: Cytotoxicity against human SH-SY5Y cells assessed as cell viability up to 100 uM after 48 hrs by MTT assay relative to control; format: cell-based
Cholinesterase [30] = target: T2, Cholinesterase (Homo sapiens, UniProt P06276); assay: Reversible inhibition of human BChE assessed as residual activity at 0.1 times of IC50 concentration relative to control
T2 sequence (P06276 whole entry, the tested form may be a part): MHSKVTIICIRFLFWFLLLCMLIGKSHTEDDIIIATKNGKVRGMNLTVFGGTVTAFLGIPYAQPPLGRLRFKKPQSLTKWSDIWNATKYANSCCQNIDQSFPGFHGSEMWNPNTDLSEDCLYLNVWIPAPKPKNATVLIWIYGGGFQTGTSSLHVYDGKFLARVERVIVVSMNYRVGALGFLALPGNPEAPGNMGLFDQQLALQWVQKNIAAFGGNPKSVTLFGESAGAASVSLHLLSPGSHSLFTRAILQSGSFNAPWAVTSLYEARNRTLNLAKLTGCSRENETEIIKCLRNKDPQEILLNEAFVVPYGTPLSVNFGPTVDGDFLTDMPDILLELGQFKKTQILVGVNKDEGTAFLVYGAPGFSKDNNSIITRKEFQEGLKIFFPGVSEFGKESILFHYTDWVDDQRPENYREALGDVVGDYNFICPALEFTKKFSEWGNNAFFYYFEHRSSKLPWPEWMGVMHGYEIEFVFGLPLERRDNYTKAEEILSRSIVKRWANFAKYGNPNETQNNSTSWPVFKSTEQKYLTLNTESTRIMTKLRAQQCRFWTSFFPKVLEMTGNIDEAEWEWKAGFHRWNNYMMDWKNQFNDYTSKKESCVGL

SH-SY5Y [31] = assay: Neuroprotective activity against amyloid beta (1 to 42 residues)-induced cytotoxicity in human SH-SY5Y cells assessed as increase in cell viability at 1 to 10 uM incubated for 48 hrs by MTT assay; format: functional, cell-based; details: dose 1-10 µM
Mus musculus [32] = assay: Antialzheimer activity in scopolamine-induced Kunming mouse model of memory impairment assessed as Q30 bases ratio (raw data) in brain hippocampus at 5 mg/kg , po by illumina sequencing method (reference value: 93.53%); format: functional
[33] = Metal chelating activity assessed as Fe2+-compound complex formation in PBS buffer at pH 7.4 at 37.5 uM by UV-Visible spectra analysis
Danio rerio [34] = organism: Danio rerio; assay: Antialzheimer activity in Alcl3-induced zebra fish AD model assessed as increase dyskinesia recovery rate at 0.78 ug/ml relative to control; format: functional; details: dose 0.78 µg/ml
[35] = Toxicity in 2 dpf zebra fish assessed as pericardial edema at 25 ug/ml after 3 days relative to control; set-up: species or system Danio rerio; details: zebrafish, 72 h, at 25 µg/mL, time 3 day
Cholinesterase [36] = target: T2, Cholinesterase; assay: Inhibition of human BChE assessed as residual activity at IC50 concentration relative to control
[37] = Toxicity in 3 dpf zebra fish assessed as mortality at 0.78 ug/ml (reference value: 0%); set-up: species or system Danio rerio; details: zebrafish, at 0.78 µg/mL, read-out: Activity
HT-22 [38] = assay: Activation of ubiquitin-proteasome system in mouse HT-22 cells expressing YFP-CLI assessed as reduction in GFP level at 10 uM after 24 hrs by flow cytometric analysis; format: cell-based; details: filed as activator
Mus musculus [39] = assay: Antialzheimer activity in scopolamine-induced Kunming mouse model of memory impairment assessed as uniquely mapped in brain hippocampus at 5 mg/kg , po by illumina sequencing method (reference value: 94.54%); format: functional

SMILES: CCN(CCCCOc1ccc(-c2cc(=O)c3c(O)cc(OCCCCN(CC)Cc4ccccc4)cc3o2)cc1)Cc1ccccc1
- mortality at 12.5 ug/ml [1]: 100%
- Activity (PC-12): Non-Toxic
- IC50 [2]: 5.8 µM
- Activity [3]: 66.7%
- Activity [4]: 70%
- IC50 (Acetylcholinesterase [5]): 0.36 µM
- Activity (Mus musculus [6]): 100%
- Activity (Danio rerio [7]): 80%
- mortality at 25 ug/ml [8]: 100%
- mortality at 100 ug/ml [9]: 100%
- Activity [10]: Active
- Activity [11]: 26.7%
- Activity (Acetylcholinesterase [12]): 86.6%
- Drug metabolism [13]: Metabolite_Detected
- IC50 (Cholinesterase [14]): 9.6 µM
- Activity [15]: inactive
- Kd [16]: 1.2 µM
- Activity (Homo sapiens): Dose-dependent effect
- Activity [17]: Active
- Activity [18]: 433%
- Activity (HT-22 [19]): Active
- mortality at 200 ug/ml [20]: 100%
- Activity (HT-22 [21]): Active
- Activity [22]: 76.7%
- Activity (HT-22 [23]): Active
- Papp at 100 ug/m [24]: 1.68 ×10⁻⁶ cm/s
- Activity [25]: inactive
- Activity [26]: inactive
- Activity (Danio rerio [27]): 72%
- Ratio IC50 [28]: 2.6
- Activity (SH-SY5Y [29]): Non-Toxic
- Activity (Cholinesterase [30]): 50%
- Activity (SH-SY5Y [31]): Active
- Activity (Mus musculus [32]): 93.58%
- Activity [33]: Active
- Activity (Danio rerio [34]): 87%
- Activity [35]: 60%
- Activity (Cholinesterase [36]): 49.7%
- mortality at 0.78 ug/ml [37]: 0%
- Activity (HT-22 [38]): Active
- Activity (Mus musculus [39]): 94.34%
